Assay results as given in patent US20240374555A1, “Mast Cell Stabilizer with Sodium Cromoglycate-based Inhibitor for Preventing Lipedema Progression” (MAGI'S LAB SRL, priority 2023, published 2024).

System: histamine and its metabolites in the tissue of people with lipedema
Assay: Metabolomic analysis (IM-MS) of subcutaneous adipose tissue biopsies from lipedema patients treated with sodium cromoglycate
Format: in vivo, human
Settings: for Histamine levels in tissue samples after treatment (in words): three lipedema patients treated for two weeks
Protocol: This experiment study involved patients who were diagnosed with lipedema. The study began with collection of a sample from each subject in the study, and three patients received a treatment regimen consisting of twice daily oral doses of sodium cromoglycate (500 mg) for 15 days, as well as a topical cream containing 4% sodium cromoglycate. The effects of this treatment on the patients' symptoms and mast cell activation were evaluated as part of the study.
Thereafter, metabolomic analysis was performed by mass spectrometry. Specifically, the ion-mobility mass spectrometry (IM-MS) technique combined ion mobility with mass spectrometry, allowing different compounds to be characterized together with a specific m/z ratio. SACI-CIMS was used as ionization technique. Data were acquired through the SANIST platform. Values under the Limit of Quantification (LoQ=1 pg/mg) were considered as 0 pg/mg.
Thereafter, a target histological and metabolomic examination was performed. Specifically, biopsies of subcutaneous adipose tissue were taken from a total of six patients with lipedema and four healthy individuals.

[1] = lipedema tissue of patients treated with sodium cromoglycate (n = 3), 500 mg oral twice daily for 15 days plus 4% topical cream
[2] = lipedema tissue of patients treated with sodium cromoglycate (n = 3), 500 mg oral twice daily for 15 days plus 4% topical cream, values under LoQ (1 pg/mg) given as 0

O=C(O)c1cc(=O)c2c(OCC(O)COc3cccc4oc(C(=O)O)cc(=O)c34)cccc2o1 [sodium cromoglycate, Sodium cromoglycate]
1-Methylhystamine tissue level [1]: 13.67 ± 10.02 pg/mg | Histidine tissue level [1]: 20.67 ± 17.00 pg/mg | Histamine tissue level [2]: 0 pg/mg | Imidazole Acetaldehyde tissue level [2]: 0 pg/mg | Histamine levels in tissue samples after treatment (in words): effectively reduce histamine levels | Histamine levels in tissue samples after treatment (in words) (listed as disodium cromoglycate): normal levels of histamine
